Test results published in article PMC8319603, “Developing C2-Aroyl Indoles as Novel Inhibitors of IDO1 and Understanding Their Mechanism of Inhibition via Mass Spectroscopy, QM/MM Calculations and Molecular Dynamics Simulation” (Frontiers in Chemistry, 2021).
Read-outs that look alike come from different tables or passages of the source.

Key:
[1] = biological target: T1, recombinant protein of human IDO1 enzyme (Homo sapiens, UniProt P14902); assay: IDO1 enzymatic assay in vitro (kynurenine formation, absorbance 492 nm); assay type: biochemical; conditions: for IC50: read-out: IC50 against IDO1
T1 construct: purchased Biovision P1096
T1 sequence (P14902 whole entry): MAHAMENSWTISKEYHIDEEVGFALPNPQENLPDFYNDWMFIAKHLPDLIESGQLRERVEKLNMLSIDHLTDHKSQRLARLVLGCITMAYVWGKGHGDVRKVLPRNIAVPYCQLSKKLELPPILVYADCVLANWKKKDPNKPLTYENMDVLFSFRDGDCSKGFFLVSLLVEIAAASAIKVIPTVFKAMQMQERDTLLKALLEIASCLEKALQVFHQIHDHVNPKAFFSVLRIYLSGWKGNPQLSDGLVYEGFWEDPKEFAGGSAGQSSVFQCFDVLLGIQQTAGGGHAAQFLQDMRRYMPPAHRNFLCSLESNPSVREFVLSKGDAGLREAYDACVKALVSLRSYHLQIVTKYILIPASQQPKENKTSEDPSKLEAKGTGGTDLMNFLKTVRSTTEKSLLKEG
Method: The recombinant human IDO/TDO protein were purchased from Biovision (Catalog no.: P1096 human recombinant IDO1 and CSB-YP023351HU human recombinant TDO2). All the other HPLC grade solvent were purchased from Merck Pvt. Ltd. The IDO/TDO assays were performed according to the reported procedures.1 and 2, the details of which is mentioned in the SI.
20 µL of IDO1/TDO2 protein (1µg/ml concentration) was added and incubates for 10 min. After that 20 µL of 2 mM L-tryptophan was added and then treated with different test compounds concentration […]
The plate was then sealed well for 2hr incubation process at 37°C. After incubation, 40 µL of 30% TCA solution was added and again incubated for 15 min at 60 °C, the samples were centrifuged for 15 min at 13000 rpm at 4 °C. The 100 µL of supernatant was transferred in fresh 96 well plate and treated with 100 µL of freshly prepared 2% Ehlrich reagent which was then analyzed by absorbance plate reader at 492 nm to measure the extent of kynurenine formation. The DMSO content in the sample was 0.005 %. The final concentration of the compound in deep well plate was 5 µM. The IC50 values were calculated in triplicate by using GraphPadPrism […]
1. Water was substituted with L-tryphtophan
2. Water was substituted with L-tryhtophan and rhIDO/ rhTDO protein.
A = IDO activity in presence of inhibitor

[2] = Log D determination (octanol/buffer); assay type: physicochemical; conditions: phosphate buffer at pH 7.4
Text: (§1) For the DMPK studies of the compound 8a-d we used rat as well as human plasmas. Rat plasma was purchased from Hylasco Biotechnology Pvt. Ltd.™ Hyderabad, India. We have not performed any in vivo experiments for this manuscript neither for animals nor for humans. […] Also please note the blood plasma was obtained from the blood of Dr Srinivas R Maddi, who donated it and is the co-author of this article. The DMPK studies were supplemented by kinetic solubility, Log p and Log D determinations, PAMPA permeability, Metabolic and Plasma stability in rat and human, and finally the plasma folding in rat and human. A thorough discussion of each step is mentioned in the supplementary information.
20 µL of IDO1/TDO2 protein (1µg/ml concentration) was added and incubates for 10 min. After that 20 µL of 2 mM L-tryptophan was added and then treated with different test compounds concentration (10 µM, 5 µM, 1 µM, 500 nM, 250 nM). The plate was then sealed well for 2hr incubation process at 37°C. […] The 100 µL of supernatant was transferred in fresh 96 well plate and treated with 100 µL of freshly prepared 2% Ehlrich reagent which was then analyzed by absorbance plate reader at 492 nm to measure the extent of kynurenine formation. […] The IC50 values were calculated in triplicate by using GraphPadPrism Software (GraphPadPrism. Version 5.01 program).22, 23 […]
Log P determination: The partition coefficient was determined by adding compounds to 2 mL deep well plate containing Octanol/water mixture and vortexed the plate for 2 hours at 1200 rpm on a plate shaker. […] Octanol and buffer layers were analysed by HPLC -UV by adjusting the needle height for each Octanol and buffer and the amount of compound distributed i nto each phase was calculated
Log D determination: The distribution coefficient was determined by adding compounds to 2 mL deep well plate containing Octanol/Buffer mixture and vortexed the plate for 2 hours at 1200 rpm on a plate shaker. […]
adjusting the needle height for each Octanol and buffer and the amount of compound distributed into each phase was calculated. […]

[3] = Plasma protein binding in rat plasma (rapid equilibrium dialysis); assay type: in vitro ADME; conditions: for Rat plasma protein binding %Ge bound / Rat plasma protein binding %Ge free: 10 μM; for fraction unbound at 10 μM: pH 7.4
Text: as §1, with “information. […]” for “information.”
Plasma protein binding in rat and human plasma: To evaluate the ability of compound to bind the plasma proteins, the most common approach of plasma protein binding using rapid equilibrium dialysis device ( RED inserts) used. Compounds were tested at a final concentration of 10 μM in mouse, rat and human plasma. An aliquot of 500 μL plasma containing compound 3k was added in first half (plasma side) of the well of RED device. An aliquot of 300 μL of 100 mM sodium phosphate buffer pH 7.4 was added in the second half (buffer side) of the Insert. The plate containing plasma and […]

[4] = recombinant human IDO1, dose response study

| IC50 [1, 4] [µM] | logD [2] | Rat plasma protein binding %Ge bound [3] [%] | Rat plasma protein binding %Ge free [3] [%] | fraction unbound at 10 μM [3] | Selectivity for IDO over TDO ([1]; IDO vs TDO) | IC50 ([1]; recombinant human IDO1) [µM] | Percentage inhibition of IDO1 ([1]; 5 μM concentration of compound, 5 µM) [%] | inhibition at 5 µM ([1]; 5 μM concentration of compound, read-out: Percentage inhibition of IDO1) [%] | Compound |
| --- | --- | --- | --- | --- | --- | --- | --- | --- | --- |
| 1.52 | 2.95 | 95.9 | 4.1 | 0.041 | – | – | – | – | COC(=O)NCCc1c(C(=O)c2ccccc2)[nH]c2ccccc12 [8e] |
| – | 1.51 | 82.1 | 17.9 | 0.179 | reasonable selectivity | 0.18 | – | – | CC(=O)NCCc1c(C(=O)c2ccc([N+](=O)[O-])cc2)[nH]c2ccccc12 [8d] |
| 1.45 | 1.32 | 97.3 | 2.7 | 0.027 | – | – | 37 | ~40 | CC(=O)NCCc1c(C(=O)c2cc(C(F)(F)F)cc(C(F)(F)F)c2)[nH]c2ccccc12 [8a] |
